From ChEMBL document CHEMBL1140846, “Convenient QSAR model for predicting the complexation of structurally diverse compounds with beta-cyclodextrins” (Bioorg Med Chem, 2009)

Assay: Binding affinity to beta cyclodextrin

C[C@H](CCC(=O)O)[C@H]1CC[C@H]2[C@@H]3C(=O)C[C@@H]4CC(=O)CC[C@]4(C)[C@H]3CC(=O)[C@]12C [DEHYDROCHOLIC ACID]
log Ks: 3.38

C[C@@H]1C[C@H]2[C@@H]3CCC4=CC(=O)C=C[C@]4(C)[C@@]3(F)[C@@H](O)C[C@]2(C)[C@@]1(O)C(=O)CO [DEXAMETHASONE]
log Ks: 3.65

c1ccc2c(c1)oc1ccccc12 [DIBENZOFURAN]
log Ks: 2.97

c1ccc2c(c1)sc1ccccc12 [DIBENZOTHIOPHENE]
log Ks: 3.48

CCNCC [DIETHYLAMINE]
log Ks: 1.36

CCCCC[C@H](O)/C=C/[C@H]1[C@H](O)CC(=O)[C@@H]1C/C=C\CCCC(=O)O [DINOPROSTONE]
log Ks: 3.09

CCCCC[C@H](O)/C=C/[C@@H]1[C@H]2C/C(=C/CCCC(=O)O)O[C@H]2C[C@H]1O [EPOPROSTENOL]
log Ks: 2.94

CCOC(=O)c1ccccc1 [ETHYL BENZOATE]
log Ks: 2.73

CCc1ccccc1 [ETHYLBENZENE]
log Ks: 2.59

OCCO [ETHYLENE GLYCOL]
log Ks: -0.19

CCOC(=O)c1ccc(O)cc1 [ETHYLPARABEN]
log Ks: 3.01

O=C(O)c1ccccc1Nc1ccccc1 [FENAMIC ACID]
log Ks: 2.89

O=C(O)CCC(=O)c1ccc(-c2ccccc2)cc1 [FENBUFEN]
log Ks: 2.63

CN1C(=O)CN=C(c2ccccc2F)c2cc(Cl)ccc21 [FLUDIAZEPAM]
log Ks: 2.33

O=C(O)c1ccccc1Nc1cccc(C(F)(F)F)c1 [FLUFENAMIC ACID]
log Ks: 3.1

CC1(C)O[C@@H]2C[C@H]3[C@@H]4C[C@H](F)C5=CC(=O)C=C[C@]5(C)[C@@]4(F)[C@@H](O)C[C@]3(C)[C@]2(C(=O)CO)O1 [FLUOCINOLONE ACETONIDE]
log Ks: 3.48

Fc1ccccc1 [FLUOROBENZENE]
log Ks: 1.96

CC(C(=O)O)c1ccc(-c2ccccc2)c(F)c1 (centres undefined) [FLURBIPROFEN]
log Ks: 3.69

COC1=CC(=O)C[C@@H](C)[C@]12Oc1c(Cl)c(OC)cc(OC)c1C2=O [GRISEOFULVIN]
log Ks: 1.47

CN1C(=O)NC(=O)C(C)(C2=CCCCC2)C1=O (centres undefined) [HEXOBARBITAL]
log Ks: 3.08

NS(=O)(=O)c1cc2c(cc1Cl)NCNS2(=O)=O [HYDROCHLOROTHIAZIDE]
log Ks: 1.76

CC(=O)OCC(=O)[C@@]1(O)CC[C@H]2[C@@H]3CCC4=CC(=O)CC[C@]4(C)[C@H]3[C@@H](O)C[C@@]21C [HYDROCORTISONE ACETATE]
log Ks: 3.51

CCCC(=O)O[C@]1(C(=O)CO)CC[C@H]2[C@@H]3CCC4=CC(=O)CC[C@]4(C)[C@H]3[C@@H](O)C[C@@]21C [HYDROCORTISONE BUTYRATE]
log Ks: 3.23

C[C@]12CCC(=O)C=C1CC[C@@H]1[C@@H]2[C@@H](O)C[C@@]2(C)[C@H]1CC[C@]2(O)C(=O)CO [HYDROCORTISONE]
log Ks: 3.6

Oc1ccc(O)cc1 [HYDROQUINONE]
log Ks: 2.05

Ic1ccccc1 [IODOBENZENE]
log Ks: 2.93

CC(C)CO [ISOBUTANOL]
log Ks: 1.62

CC(C(=O)O)c1cccc(C(=O)c2ccccc2)c1 (centres undefined) [KETOPROFEN]
log Ks: 2.85

Cc1ccc(Cl)c(Nc2ccccc2C(=O)O)c1Cl [MECLOFENAMIC ACID]
log Ks: 2.67

CN1CCN=C(c2ccccc2)c2cc(Cl)ccc21 [MEDAZEPAM]
log Ks: 2.4

Cc1cccc(Nc2ccccc2C(=O)O)c1C [MEFENAMIC ACID]
log Ks: 2.49

CC1=CC(=O)c2ccccc2C1=O [MENADIONE]
log Ks: 2.27

CCC1(c2ccccc2)C(=O)NC(=O)N(C)C1=O (centres undefined) [MEPHOBARBITAL]
log Ks: 3.16

COc1ccc(O)cc1 [MEQUINOL]
log Ks: 2.21

Cc1cccc(O)c1 [METACRESOL]
log Ks: 1.98

CO [METHYL ALCOHOL]
log Ks: -0.49

COC(=O)c1ccccc1 [METHYL BENZOATE]
log Ks: 2.5

CN1C(=O)CN=C(c2ccccc2)c2cc([N+](=O)[O-])ccc21 [NIMETAZEPAM]
log Ks: 1.73

O=C1CN=C(c2ccccc2)c2cc([N+](=O)[O-])ccc2N1 [NITRAZEPAM]
log Ks: 1.97

O=[N+]([O-])c1ccccc1 [NITROBENZENE]
log Ks: 2.04

CCCCCCCCO [OCTANOL]
log Ks: 3.17

O=[N+]([O-])c1ccc(O)cc1 [P-NITROPHENOL]
log Ks: 2.39

Cc1ccc(C)cc1 [P-XYLENE]
log Ks: 2.38

O=C(O)c1ccc(O)cc1 [PARABEN]
log Ks: 2.2

Oc1ccc(Cl)cc1 [PARACHLOROPHENOL]
log Ks: 2.61

OCc1ccc(O)cc1 [PARAHYDROXYBENZYL ALCOHOL]
log Ks: 2.16

C[C@@H]1C[C@H]2[C@@H]3C[C@H](F)C4=CC(=O)C=C[C@]4(C)[C@H]3[C@@H](O)C[C@]2(C)[C@@]1(O)C(=O)CO [PARAMETHASONE]
log Ks: 3.4

CCC(=O)c1ccc(O)cc1 [PAROXYPROPIONE]
log Ks: 2.63

CCCC(C)C1(CC)C(=O)NC(=O)NC1=O (centres undefined) [PENTOBARBITAL]
log Ks: 3.01

c1ccc2c(c1)cnc1ccccc12 [PHENANTHRIDINE]
log Ks: 2.57

c1ccc2nc3ccccc3nc2c1 [PHENAZINE]
log Ks: 2.41

CCOc1ccccc1 [PHENETOLE]
log Ks: 2.49

CCC1(c2ccccc2)C(=O)NC(=O)NC1=O [PHENOBARBITAL]
log Ks: 3.22

Oc1ccccc1 [PHENOL]
log Ks: 1.98

c1ccc2c(c1)Nc1ccccc1S2 [PHENOTHIAZINE]
log Ks: 2.73

c1ccc2c(c1)Nc1ccccc1O2 [PHENOXAZINE]
log Ks: 2.69

O=C(O)Cc1ccccc1 [PHENYLACETIC ACID]
log Ks: 2.1

OCCc1ccccc1 [PHENYLETHYL ALCOHOL]
log Ks: 2.15

CC(=O)OCC(=O)[C@@]1(O)CC[C@H]2[C@@H]3CCC4=CC(=O)C=C[C@]4(C)[C@H]3[C@@H](O)C[C@@]21C [PREDNISOLONE ACETATE]
log Ks: 3.76

C[C@]12C=CC(=O)C=C1CC[C@@H]1[C@@H]2[C@@H](O)C[C@@]2(C)[C@H]1CC[C@]2(O)C(=O)CO [PREDNISOLONE]
log Ks: 3.56

NC(=O)CCC/N=C(\c1ccc(Cl)cc1)c1cc(F)ccc1O [PROGABIDE]
log Ks: 2.53

c1ccc2ncccc2c1 [QUINOLINE]
log Ks: 2.12

CC(=O)S[C@@H]1CC2=CC(=O)CC[C@]2(C)[C@H]2CC[C@@]3(C)[C@@H](CC[C@@]34CCC(=O)O4)[C@H]12 [SPIRONOLACTONE]
log Ks: 4.44

Nc1ccc(S(=O)(=O)Nc2ncccn2)cc1 [SULFADIAZINE]
log Ks: 2.52
